Measurements reported in PMC12040169 (PLOS Biology, 2025).

Assay: in vitro
Conditions: human, hela cells, % viability

O=CN1CCc2c([nH]c3ccccc23)C12CCN(CCCN1C(=O)C3CCCCC3C1=O)C2 (stereo not drawn) [CBK039592]
viability at 28.5 h, 10 µM: 114%

O=C(NCC(c1ccccc1)N1CCOCC1)c1cnc(-c2ccc(F)cc2)c(-c2ccco2)c1 (stereo not drawn) [CBK037531]
viability at 28.5 h, 10 µM: 95.7%

CC(=O)N1CCN(c2ccccc2NC(=O)c2ccc(OCc3ccccc3)cc2)CC1 [CBK269775]
viability at 28.5 h, 10 µM: 103%

CC(=O)Nc1ccc(S(=O)(=O)N2CCN(C/C=C/c3ccccc3)CC2)cc1 [CBK261545]
viability at 28.5 h, 10 µM: 114%

CCC(C)NC(=O)Cn1c(C2CCOCC2)cc2cc(C)cnc21 (stereo not drawn) [CBK284756]
viability at 28.5 h, 10 µM: 94.3%

O=C(COc1ccc(F)cc1)N1CCCC1c1cccc(Cc2ccccc2)n1 (stereo not drawn) [CBK286214]
viability at 28.5 h, 10 µM: 105%

O=C(Cc1c[nH]c(=O)[nH]c1=O)Nc1ncc(Cc2ccc(F)cc2)s1 [CBK285674]
viability at 28.5 h, 10 µM: 103%

O=S1(=O)CCC(c2nc(-c3ccc(Br)o3)no2)C1 (stereo not drawn) [CBK306134]
viability at 28.5 h, 10 µM: 77.8%

Nc1ccc(Sc2nc3ccccc3nc2C(F)(F)F)cc1 [CBK089560]
viability at 28.5 h, 10 µM: 100%

CCCc1c(C)nc2ccc(C)cc2c1SCC(=O)O [CBK263537]
viability at 28.5 h, 10 µM: 88.6%

O=S(=O)(c1ccccc1)N(Cc1cc2ccccc2nc1O)CC1CCCO1 (stereo not drawn) [CBK269424]
viability at 28.5 h, 10 µM: 93.3%

Cc1cc(C)nc(Nc2ncc(O)n2-c2ccccc2C)n1 [CBK263024]
viability at 28.5 h, 10 µM: 91.2%

Cc1cc(C)n(-c2ccc(CN3C(=O)NC4(CCCC4)C3=O)cc2)n1 [CBK305796]
viability at 28.5 h, 10 µM: 88.3%

COCCCNC(=O)CN1CCCCC1Cn1nc(C)cc1C (stereo not drawn) [CBK304009]
viability at 28.5 h, 10 µM: 104%

CSc1ccc(C(NC(=O)OC(C)(C)C)C(=O)O)cc1 (stereo not drawn) [CBK287196]
viability at 28.5 h, 10 µM: 80.4%

O=C(O)c1ccc(Cl)c(S(=O)(=O)Nc2ccc(I)cc2)c1 [CBK296132]
viability at 28.5 h, 10 µM: 83.2%

COc1cc(NC(=O)c2cc([N+](=O)[O-])ccc2N2CCOCC2)ccc1-c1cc2ccccc2oc1=O [CBK269128]
viability at 28.5 h, 10 µM: 84.9%

Cc1cc2[nH]cc(C(=O)N3CCCC3c3ccco3)c(=O)n2n1 (stereo not drawn) [CBK307390]
viability at 28.5 h, 10 µM: 82.9%

N#C/C(=C\c1ccc(C(=O)O)cc1)C(=O)NCC1CCCO1 (stereo not drawn) [CBK263228]
viability at 28.5 h, 10 µM: 95%

O=C(Cn1c(=O)c2nncn2c2ncccc21)NC1CCCCCC1 [CBK288600]
viability at 28.5 h, 10 µM: 92.3%

Cn1cc(-c2ncc(OCc3ccc4c(c3)OCO4)nc2N)cn1 [CBK145168]
viability at 28.5 h, 10 µM: 105%

COC[C@@H]1CCCN1S(=O)(=O)c1ccc(OC(F)(F)F)cc1 [CBK044338]
viability at 28.5 h, 10 µM: 92.4%

Clc1ccc(CN2CCN(c3nccnc3OC3CCCCC3)CC2)cc1 [CBK082826T]
viability at 28.5 h, 10 µM: 101%

Cn1c2ccccc2c2cc(/C=C(/NC(=O)c3ccccc3)C(=O)Nc3cccc(O)c3)ccc21 [CBK261449]
viability at 28.5 h, 10 µM: 111%

O=C(NCc1ccccc1)c1cccc(NC(=O)c2cc(-c3ccncc3)nc3ccc(Cl)cc23)c1 [CBK267769]
viability at 28.5 h, 10 µM: 117%

CCn1cc(NC(=O)CC(C)(O)c2ccccc2)ccc1=O (stereo not drawn) [CBK304507]
viability at 28.5 h, 10 µM: 91.7%

C=CCC1c2cccc(C(=O)O)c2C(=O)N1c1ccc(F)cc1 (stereo not drawn) [CBK113158]
viability at 28.5 h, 10 µM: 94.1%

CCn1cc(CN(CC(C)C)C(=O)c2ccccc2C#N)cn1 [CBK306729]
viability at 28.5 h, 10 µM: 102%

CN(C)C(=O)N1CCN(C(=O)c2cn(Cc3cccc(S(C)(=O)=O)c3)nn2)CC1 [CBK160969T]
viability at 28.5 h, 10 µM: 89.7%

CCOc1ccccc1NC(=O)CC1Sc2ccc(C(F)(F)F)cc2NC1=O (stereo not drawn) [CBK263659]
viability at 28.5 h, 10 µM: 95.6%

Cc1ccc(S(=O)(=O)NC(C)(C)CSc2nncn2C)cc1 [CBK266366]
viability at 28.5 h, 10 µM: 104%

O=C(CC1CCCCC1)N1CCC2(CCCNC2)C1 (stereo not drawn) [CBK137154C]
viability at 28.5 h, 10 µM: 91.5%

COc1ccc2sc(N(Cc3cccnc3)C(=O)C3COc4ccccc4O3)nc2c1 (stereo not drawn) [CBK294424]
viability at 28.5 h, 10 µM: 107%

COc1ccccc1C(=O)N1CCC(Cc2ccccc2-c2ccccc2)(C(N)=O)CC1 [CBK285739]
viability at 28.5 h, 10 µM: 96.4%

O=C(O)CCn1c2ccc(Cl)cc2c2cc(Cl)ccc21 [CBK261415]
viability at 28.5 h, 10 µM: 89.5%

COc1ccc2[nH]c3c(c2c1)CCNC31CCN(CC(=O)C(C)(C)C)CC1 [CBK039471]
viability at 28.5 h, 10 µM: 98.1%

Brc1ccc(-c2nc(CSc3nnnn3C3CCCCC3)no2)cc1 [CBK026913]
viability at 28.5 h, 10 µM: 110%

CC1CCCN(CC(O)c2ccc3c(c2)CC(C)N3C(=O)C2CC2)C1 (stereo not drawn) [CBK282125]
viability at 28.5 h, 10 µM: 99.2%

O=C1NC(=O)C2(CCN(Cc3ccccc3)CC2)N1 [CBK005078]
viability at 28.5 h, 10 µM: 86.8%

Cc1ccc(OCC(=O)N2N=C(CC(C)C)CC2(O)C(F)(F)F)cc1C (stereo not drawn) [CBK293935]
viability at 28.5 h, 10 µM: 91.5%

O/N=C/c1ccc(-c2cc(Cl)ccc2Cl)o1 [CBK288500]
viability at 28.5 h, 10 µM: 92.6%

O=C1N/C(=N/c2cccc(O)c2)S/C1=C1\C(=O)Nc2ccccc21 [CBK265549]
viability at 28.5 h, 10 µM: 99.6%

COc1cc(C(C)=O)ccc1OCC(O)Cn1c(=O)n(-c2ccccc2)c(=O)c2ccccc21 (stereo not drawn) [CBK296677]
viability at 28.5 h, 10 µM: 94.4%

Clc1cncc(OC(c2ccccc2)C2CC2)n1 (stereo not drawn) [CBK176042]
viability at 28.5 h, 10 µM: 78%

Cc1cc(C)c(C)c(S(=O)(=O)Nc2cc(S(=O)(=O)N3CCOCC3)ccc2F)c1C [CBK269698]
viability at 28.5 h, 10 µM: 61.9%

CCC1CCCCN1C(=O)CCc1c(C)nc(-c2ccccc2)[nH]c1=O (stereo not drawn) [CBK305608]
viability at 28.5 h, 10 µM: 87.5%

O=C(NCc1nc(-c2ccccc2)no1)C(c1cccs1)c1cccs1 [CBK286340]
viability at 28.5 h, 10 µM: 109%

CCOc1ccc2nc(NS(=O)(=O)c3ccc4c5c(cccc35)C(=O)N4)sc2c1 [CBK262162]
viability at 28.5 h, 10 µM: 100%

O=C(COc1ccccc1)NCc1ccc(OC2CCNCC2)cc1 [CBK028425T]
viability at 28.5 h, 10 µM: 98.2%

Cn1c(=O)c2c(nc(NCCN)n2C)n(C)c1=O [CBK268680]
viability at 28.5 h, 10 µM: 107%

CC1(C)NC(=O)N(CCCC(=O)NCc2coc(-c3cccs3)n2)C1=O [CBK237157]
viability at 28.5 h, 10 µM: 105%

O=C(O)C1CCCCC1C(=O)NCCc1ccc(Cl)cc1 (stereo not drawn) [CBK267972]
viability at 28.5 h, 10 µM: 98.5%

O=C(c1ccc(N2CCN(C3CC(=O)N(Cc4cccs4)C3=O)CC2)cc1)c1cccnc1 (stereo not drawn) [CBK269040]
viability at 28.5 h, 10 µM: 98.5%

CCOc1cc(C(=S)N2CCCCC2)ccc1OC(=O)c1ccccc1Cl [CBK019660]
viability at 28.5 h, 10 µM: 98.9%

COc1ccc(C(C)C)cc1-c1cn2ccnc2c(N(C)CCN(C)C)n1 [CBK066368]
viability at 28.5 h, 10 µM: 94.8%

Cc1sc2nc(C(C)Nc3ccc4[nH]c(=O)[nH]c4c3)[nH]c(=O)c2c1C (stereo not drawn) [CBK297915]
viability at 28.5 h, 10 µM: 80.6%

CC(=O)Nc1ccc(-c2cccc(COC3CCN(C(=O)Cc4c[nH]cn4)CC3)c2)cc1 [CBK149497]
viability at 28.5 h, 10 µM: 103%

CN1C[C@@H](NC(=O)COc2ccccc2)C[C@H]1c1nc(-c2ccncc2)no1 [CBK288855]
viability at 28.5 h, 10 µM: 90.4%

c1ccc(-c2cnc3c(N4CCCC4)nc(-c4cccnc4)cn23)cc1 [CBK092245]
viability at 28.5 h, 10 µM: 86.7%

COc1ccc(S(=O)(=O)NCCSCc2cccc(Cl)c2)c(Cl)c1Cl [CBK266281]
viability at 28.5 h, 10 µM: 97.6%

O=C(/C=C/c1ccc2c(c1)OCO2)NCCSc1ccccn1 [CBK264012]
viability at 28.5 h, 10 µM: 97.7%

Cc1ccc(-c2nnc3s/c(=C\c4ccc([N+](=O)[O-])cc4)c(=O)n23)cc1 [CBK264882]
viability at 28.5 h, 10 µM: 101%

COC(=O)N/N=C(/C)c1ccc(C)cc1 [CBK016149]
viability at 28.5 h, 10 µM: 109%
